# Source: US20030208079A1, “Piperidinylaminomethyl trifluoromethyl cyclic ether compounds as substance P antagonists” (Pfizer Inc., priority 1997, published 2003)
# Tested on: plasma protein extravasation in the ureter
# Assay: capsaicin-induced plasma extravasation test
# Format: in vivo
# Details: 0.03 mg/kg, given orally 1 hour before capsaicin challenge, male guinea pigs
# Method: In this test, anti-inflammatory activity is determined as the percent inhibition of plasma protein extravasation in the ureter of pentobarbital-anesthetized (25 mg/kg i.p.) male Hartey guinea pigs (weighing 300-350 g). Plasma extravasation is induced by intraperitoneal injection of capsaicin (30 μM in 0.1 BSA containing buffer, 10 ml/animal) into the animals, which are fasted overnight. The compounds of this invention were dissolved in 0.1% methyl cellulose-water and given orally 1 hour before capsaicin challenge. Evans blue dye (30 mg/kg) was administered intravenously 5 minutes before challenge. The animals were killed 10 minutes after capsaicin injection and both right and left ureter were removed. Tissue dye content was quantitated at 600 nm absorbance after overnight formamide extraction.
structure (smiles),measurement,value
"COc1cc2c(cc1CN[C@H]1CCCN[C@H]1c1ccccc1)C(C)(C(F)(F)F)OCC2.Cl.Cl (stereo partly drawn) [Example 3, (2S,3S)-3-(6-Methoxy-1-methyl-1-trifluoromethylisochroman-7-yl)methylamino-2-phenylpiperidine Dihydrochloride]",percent inhibition of plasma protein extravasation,98%
